Results reported in patent publication EP4635944A1, “2-AZABICYCLO[3.1.1]HEPTANE COMPOUND” (Daiichi Sankyo Company, Limited, priority 2022, dated 2024).
pEC50: −log10 of the molar value.

Columns and labels:
human OX2R = biological target: T1, human OX2R (Homo sapiens, UniProt O43614); assay: Evaluation of OX2R agonist activity (intracellular calcium, CHO-K1 cells with forced expression of human OX2R); type: cell-based; settings: CHO-K1 cells expressing human OX2R; 100% = 5 µM of the reference compound; read-out: hOX2R EC50
T1 construct: host or cells: CHO-K1 (Chinese Hamster Ovary K1)
T1 sequence (O43614 1-444): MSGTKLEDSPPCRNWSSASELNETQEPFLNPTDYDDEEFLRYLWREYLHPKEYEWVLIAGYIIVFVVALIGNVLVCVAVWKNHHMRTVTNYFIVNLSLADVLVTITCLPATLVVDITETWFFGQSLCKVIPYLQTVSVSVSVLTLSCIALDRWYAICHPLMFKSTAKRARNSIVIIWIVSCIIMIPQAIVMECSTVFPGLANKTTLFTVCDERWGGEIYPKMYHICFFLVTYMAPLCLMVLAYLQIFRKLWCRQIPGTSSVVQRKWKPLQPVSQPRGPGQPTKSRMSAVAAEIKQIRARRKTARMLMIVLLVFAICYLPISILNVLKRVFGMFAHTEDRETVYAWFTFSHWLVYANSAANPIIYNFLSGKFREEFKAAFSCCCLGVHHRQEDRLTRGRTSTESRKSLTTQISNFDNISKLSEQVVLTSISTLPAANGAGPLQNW
In short: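 Cells seeded 7500/well, cultured 24 h, loaded with Fluo 4-AM (2.5 µg/mL final) plus probenecid for 30 min. Calcium response read as 480/540 nm excitation ratio; max–min signal 5–7 s after compound addition, normalized to buffer (0%) and 5 µM reference agonist (100%). EC50 from concentration series; 0.5% DMSO final.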

male C57BL/6J mice = assay: Acceleration of locomotor activity (arousal effect in mice); type: in vivo; settings: 10 mg/kg of body weight, orally; cumulative counts for one hour after administration; solvent administration group = 100%
Experimental: Acceleration of locomotor activity
Acceleration of locomotor activity in rodents can be an indicator of arousal. An experiment was carried out on the arousal effect of the test compound in mice, using the acceleration of locomotor activity as the indicator. For the experiment, male C57BL/6J mice (6 weeks old, THE JACKSON LABORATORY JAPAN, INC., 6 to 8 animals per group) were used. Mice were allowed to acclimate for 1 hour or longer in the rearing cage in the room where the measurement was to be performed, until the experiment. After the acclimation, the mice were placed in a locomotor activity measuring apparatus (the behavior analyzer SCANET-40 series, Melquest Ltd.) equipped with an infrared sensor to start the measurement. After 2 hours, either the solvent or the test compound (10 mg/kg of body weight) was orally administered, and the mice were immediately returned to the measuring apparatus and the measurement was further performed for 2 hours. The test compound was suspended in the 0.5 w/v% methylcellulose 400 solution (Wako Pure Chemical Industries, Ltd., Japan). The locomotor activity was counted every 5 minutes, and the cumulative counts for one hour after administration were calculated for each treatment group. The proportion of the locomotor activity of the test compound administration group to the solvent administration group whose locomotor activity was defined as 100% was calculated and shown in Table 2.

[1] = Evaluation of metabolic stability in human liver microsomes; type: in vitro ADME; settings: for metabolic stability compared to the corresponding compounds that were not deuterated: human liver microsomes, 30 minutes, deuterated at specific positions; for Human metabolic stability Residual ratio (%): test compound 1 µM, human liver microsomes 0.5 mg/mL, 30 minutes at 37°C
Experimental: Evaluation of metabolic stability of OX2R agonist
The test compound (final concentration was 1 µM, dissolved in DMSO/acetonitrile = 1/99), pooled human liver microsomes (final concentration was 0.5 mg/mL), and sodium phosphate buffer (pH 7.4, final concentration was 100 mM) were admixed and preincubated at 37°C for 15 minutes. Thereafter, a mixed solution of glucose-6-phosphate (final concentration was 10 mM), glucose-6-phosphate dehydrogenase (final concentration was 1 U/mL), and magnesium chloride (final concentration was 3.3 mM) was added and a certain amount of the mixture was collected. Then, an acetonitrile/methanol mixed solution (75/25, v/v) containing a 4.5-fold volume of internal standard substances (final concentrations: phenacetin: 1 ng/mL, niflumic acid: 15 ng/mL, furosemide: 20 ng/mL) was added to stop the reaction (0 min sample). Subsequently, β-nicotinamide adenine dinucleotide phosphate (final concentration was 1 mM) was added, and after 30 minutes of incubation at 37°C, a certain amount of the mixture was collected, to which an acetonitrile/methanol mixed solution (75/25, v/v) containing a 4.5-fold volume of the internal standard substances was added to stop the reaction (30 min sample). For both samples, a portion of the supernatant after centrifugation (about 1200 × g, 4°C, 15 minutes) was injected into a liquid chromatograph tandem quadrupole mass spectrometer (LC-MS/MS) for analysis. The metabolic stability was evaluated by comparing the test compound/internal standard substance ratio of the 30 min sample with the 0 min sample and calculating the residual ratio of the test compound. […]

[2] = Evaluation of ERM production (GSH adduct detection in human liver microsomes); type: in vitro ADME; settings: test compound 500 µM, human liver microsomes 2 mg/mL, GSH/SI-GSH, 37°C for 60 minutes; negative = no metabolite GSH adduct pair peak
Experimental: Evaluation of ERM production from OX2R agonist
The test compound (final concentration was 500 µM, dissolved in DMSO/acetonitrile = 1/9), pooled human liver microsomes (final concentration was 2 mg/mL), L-glutathione reduced (GSH, final concentration was 0.5 mM), potassium phosphate buffer (pH 7.4, final concentration was 100 mM), and stable isotope labeled GSH (SI-GSH, final concentration was 0.5 mM) were admixed and preincubated at 37°C for 3 minutes. Thereafter, a mixed solution of glucose-6-phosphate (final concentration was 25 mM), β-nicotinamide adenine dinucleotide phosphate (final concentration was 0.25 mM), glucose-6-phosphate dehydrogenase (final concentration was 2 U/mL), and magnesium chloride (final concentration was 10 mM) was added, and incubation was performed at 37°C for 60 minutes. After the incubation, the reaction was stopped by adding a 2-fold volume of acetonitrile. A portion of the supernatant after centrifugation (about 1200 × g, 4°C, 15 minutes) was injected into a liquid chromatograph quadrupole time-of-flight mass spectrometer (Q-Tof) for analysis. The mass number of metabolites, GSH adduct and SI-GSH adduct, predicted from the chemical structural formula of the test compound was calculated, and the presence of the corresponding peaks in the measurement sample was checked. Peaks with the same retention time and approximately equal peak area of the detected peaks of the metabolites, GSH adduct and SI-GSH adduct, were extracted as pair peaks. The presence of a pair peak determined to be a metabolite GSH adduct was considered positive for ERM production potential, whereas the absence of such a peak was considered negative for ERM production potential.

Row | SMILES | pEC50 (human OX2R) | Locomotor activity (%) (male C57BL/6J mice) | metabolic stability compared to the corresponding compounds that were not deuterated [1] | Human metabolic stability Residual ratio (%) [1] | ERM production potential [2]
1 | [2H]C([2H])([2H])[C@@]([2H])(O)C(=O)N1C2CC(F)(C2)[C@H](NS(C)(=O)=O)[C@@H]1Cc1cccc(-c2ccccc2)c1F [Example 89, N-{(3S,4R)-5-Fluoro-3-[(2-fluoro[biphenyl]-3-yl)methyl]-2-[(2R)-2-hydroxy(^2H4)propanoyl]-2-azabicyclo[3.1.1]heptan-4-yl}methanesulfonamide] | 7.74 | 412% | improved metabolic stability | 75% | 
2 | C[C@@H](O)C(=O)N1C2CC(C2)[C@H](NS(C)(=O)=O)[C@@H]1Cc1cc(F)cc(-c2ccccc2)c1F [Example 58, N-{(3S,4S)-3-[(2,5-Difluoro[biphenyl]-3-yl)methyl]-2-[(2R)-2-hydroxypropanoyl]-2-azabicyclo[3.1.1]heptan-4-yl}methanesulfonamide] | 7.42 |  |  | 34% | negative
3 | [2H][C@](C)(O)C(=O)N1C2CC(C2)[C@H](NS(C)(=O)=O)[C@@H]1Cc1cc(F)cc(-c2ccccc2)c1F [Example 98, N-{(3S,4S)-3-[(2,5-Difluoro[biphenyl]-3-yl)methyl]-2-[(2R)-2-hydroxy(2-^2H)propanoyl]-2-azabicyclo[3.1.1]heptan-4-yl}methanesulfonamide] | 7.44 | 281% | improved metabolic stability | 58% | negative
4 | [2H][C@](C)(O)C(=O)N1C2CC(C2)[C@H](NS(C)(=O)=O)[C@@H]1Cc1cccc(-c2ccccc2)c1F [Example 97, N-{(3S,4S)-3-[(2-Fluoro[biphenyl]-3-yl)methyl]-2-[(2R)-2-hydroxy(2-^2H)propanoyl]-2-azabicyclo[3.1.1]heptan-4-yl}methanesulfonamide] | 7.68 | 601% | improved metabolic stability | 57% | negative
5 | [2H]C([2H])([2H])[C@@]([2H])(O)C(=O)N1C2CC(F)(C2)[C@H](NS(C)(=O)=O)[C@@H]1Cc1cc(F)cc(-c2ccccc2)c1F [Example 87, N-{(3S,4R)-3-[(2,5-Difluoro[biphenyl]-3-yl)methyl]-5-fluoro-2-[(2R)-2-hydroxy(^2H4)propanoyl]-2-azabicyclo[3.1.1]heptan-4-yl}methanesulfonamide] | 7.52 | 221% | improved metabolic stability | 70% | 
6 | [2H]C([2H])([2H])[C@@]([2H])(O)C(=O)N1C2CC(C2)[C@H](NS(C)(=O)=O)[C@@H]1Cc1cc(F)cc(-c2ccccc2)c1F [Example 88, N-{(3S,4S)-3-[(2,5-Difluoro[biphenyl]-3-yl)methyl]-2-[(2R)-2-hydroxy(^2H4)propanoyl]-2-azabicyclo[3.1.1]heptan-4-yl}methanesulfonamide] | 7.37 |  | improved metabolic stability | 59% | negative
7 | [2H]C([2H])([2H])[C@@]([2H])(O)C(=O)N1C2CC(C2)[C@H](NS(C)(=O)=O)[C@@H]1Cc1cccc(-c2ccccc2)c1F [Example 76, N-{(3S,4S)-3-[(2-Fluoro[biphenyl]-3-yl)methyl]-2-[(2R)-2-hydroxy(^2H4)propanoyl]-2-azabicyclo[3.1.1]heptan-4-yl}methanesulfonamide] | 7.74 |  | improved metabolic stability | 59% | negative
8 | [2H]C([2H])([2H])C([2H])(O)C(=O)N1C2CC(C2)C(NS(=O)(=O)CC)C1Cc1cc(F)cc(-c2ccccc2)c1F (single isomer, unassigned) [Example 92, N-{3-[(2,5-Difluoro[biphenyl]-3-yl)methyl]-2-[2-hydroxy(^2H4)propanoyl]-2-azabicyclo[3.1.1]heptan-4-yl}ethanesulfonamide] | 7.70 |  |  |  | negative
9 | CC(C)(O)C(=O)N1C2CC(F)(C2)[C@H](NS(C)(=O)=O)[C@@H]1Cc1cc(F)cc(-c2cccc(Cl)c2)c1F [Example 77, N-[(3S,4R)-3-[(3'-Chloro-2,5-difluoro[biphenyl]-3-yl)methyl]-5-fluoro-2-(2-hydroxy-2-methylpropanoyl)-2-azabicyclo[3.1.1]heptan-4-yl]methanesulfonamide] | 7.34 |  |  |  | negative
